Reference: ChEMBL document CHEMBL1201862, “PubChem BioAssay data set” (2004)
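Exposure lasted 48 hours, with cells grown in 96-well plates and compounds tested at five concentrations. Abbreviation: GI50, concentration required for 50% inhibition of growth.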 The source made the active and inactive calls. Rule as the data show it: active = GI50 up to about 1.1 µM and inactive = higher.

What was measured:
Assay in all cases: growth of human tumour cells (NCI), 48 h
SNB-75 = tested on: SNB-75
Malme-3M = tested on: Malme-3M
NCI-H226 = tested on: NCI-H226
Hs-578T = tested on: Hs-578T
RPMI-8226 = tested on: RPMI-8226
SW-620 = tested on: SW-620
U-251 = tested on: U-251
NCI-H522 = tested on: NCI-H522
A549 = tested on: A549
TK-10 = tested on: TK-10
CAKI-1 = tested on: CAKI-1
M14 = tested on: M14
DU-145 = tested on: DU-145
KM12 = tested on: KM12
PC-3 = tested on: PC-3
ACHN = tested on: ACHN
MCF7 = tested on: MCF7
SNB-19 = tested on: SNB-19
HL-60 = tested on: HL-60
786-0 = tested on: 786-0
UACC-257 = tested on: UACC-257
HT-29 = tested on: HT-29
OVCAR-8 = tested on: OVCAR-8
OVCAR-5 = tested on: OVCAR-5
SR = tested on: SR
SK-MEL-5 = tested on: SK-MEL-5
UO-31 = tested on: UO-31
T47D = tested on: T47D
SK-OV-3 = tested on: SK-OV-3
HCT-15 = tested on: HCT-15
OVCAR-3 = tested on: OVCAR-3
COLO 205 = tested on: COLO 205
HCT-116 = tested on: HCT-116
OVCAR-4 = tested on: OVCAR-4
LOX IMVI = tested on: LOX IMVI
EKVX = tested on: EKVX
UACC-62 = tested on: UACC-62
MOLT-4 = tested on: MOLT-4
MDA-N = tested on: MDA-N
SF-295 = tested on: SF-295
SN12C = tested on: SN12C
CCRF-CEM = tested on: CCRF-CEM
NCI/ADR-RES = tested on: NCI/ADR-RES
BT-549 = tested on: BT-549
RXF 393 = tested on: RXF 393
NCI-H23 = tested on: NCI-H23
SF-268 = tested on: SF-268
SK-MEL-28 = tested on: SK-MEL-28
SF-539 = tested on: SF-539
MDA-MB-435 = tested on: MDA-MB-435
K562 = tested on: K562
HOP-92 = tested on: HOP-92
A498 = tested on: A498
NCI-H460 = tested on: NCI-H460
MDA-MB-231 = tested on: MDA-MB-231
HCC 2998 = tested on: HCC 2998
SK-MEL-2 = tested on: SK-MEL-2
IGROV-1 = tested on: IGROV-1

Compound: N#CC12C(=O)NC(=O)C1(C#N)C1C=CC2CC1 (stereo not given)
- GI50 (SNB-75): > 100 µM (inactive)
- GI50 (Malme-3M): > 100 µM (inactive)
- GI50 (NCI-H226): > 100 µM (inactive)
- GI50 (Hs-578T): > 100 µM (inactive)
- GI50 (RPMI-8226): > 100 µM (inactive)
- GI50 (SW-620): > 100 µM (inactive)
- GI50 (U-251): > 100 µM (inactive)
- GI50 (NCI-H522): > 100 µM (inactive)
- GI50 (A549): > 100 µM (inactive)
- GI50 (TK-10): > 100 µM (inactive)
- GI50 (CAKI-1): > 100 µM (inactive)
- GI50 (M14): > 100 µM (inactive)
- GI50 (DU-145): > 100 µM (inactive)
- GI50 (KM12): > 100 µM (inactive)
- GI50 (PC-3): > 100 µM (inactive)
- GI50 (ACHN): > 100 µM (inactive)
- GI50 (MCF7): > 100 µM (inactive)
- GI50 (SNB-19): > 100 µM (inactive)
- GI50 (HL-60): > 100 µM (inactive)
- GI50 (786-0): > 100 µM (inactive)
- GI50 (UACC-257): > 100 µM (inactive)
- GI50 (HT-29): > 100 µM (inactive)
- GI50 (OVCAR-8): > 100 µM (inactive)
- GI50 (OVCAR-5): > 100 µM (inactive)
- GI50 (SR): > 100 µM (inactive)
- GI50 (SK-MEL-5): > 100 µM (inactive)
- GI50 (UO-31): > 100 µM (inactive)
- GI50 (T47D): > 100 µM (inactive)
- GI50 (SK-OV-3): > 100 µM (inactive)
- GI50 (HCT-15): > 100 µM
- GI50 (OVCAR-3): > 100 µM (inactive)
- GI50 (COLO 205): > 100 µM (inactive)
- GI50 (HCT-116): > 100 µM (inactive)
- GI50 (OVCAR-4): > 100 µM (inactive)
- GI50 (LOX IMVI): > 100 µM (inactive)
- GI50 (EKVX): > 100 µM (inactive)
- GI50 (UACC-62): > 100 µM (inactive)
- GI50 (MOLT-4): > 100 µM (inactive)
- GI50 (MDA-N): > 100 µM (inactive)
- GI50 (SF-295): > 100 µM (inactive)
- GI50 (SN12C): > 100 µM (inactive)
- GI50 (CCRF-CEM): > 100 µM (inactive)
- GI50 (NCI/ADR-RES): > 100 µM (inactive)
- GI50 (BT-549): > 100 µM (inactive)
- GI50 (RXF 393): > 100 µM (inactive)
- GI50 (NCI-H23): > 100 µM (inactive)
- GI50 (SF-268): > 100 µM (inactive)
- GI50 (SK-MEL-28): > 100 µM (inactive)
- GI50 (SF-539): > 100 µM (inactive)
- GI50 (MDA-MB-435): > 100 µM (inactive)

Compound: CC(=O)OCCn1c(Cc2ccc(Cl)cc2)nn(C(C)=O)c1=O
- GI50 (Malme-3M): > 100 µM (inactive)
- GI50 (NCI-H226): > 100 µM (inactive)
- GI50 (K562): > 100 µM (inactive)
- GI50 (Hs-578T): > 100 µM (inactive)
- GI50 (RPMI-8226): > 100 µM (inactive)
- GI50 (SW-620): > 100 µM (inactive)
- GI50 (U-251): > 100 µM (inactive)
- GI50 (NCI-H522): > 100 µM (inactive)
- GI50 (A549): > 100 µM (inactive)
- GI50 (TK-10): > 100 µM (inactive)
- GI50 (CAKI-1): > 100 µM (inactive)
- GI50 (M14): > 100 µM (inactive)
- GI50 (DU-145): > 100 µM (inactive)
- GI50 (KM12): > 100 µM (inactive)
- GI50 (PC-3): > 100 µM (inactive)
- GI50 (ACHN): > 100 µM (inactive)
- GI50 (MCF7): > 100 µM (inactive)
- GI50 (SNB-19): > 100 µM (inactive)
- GI50 (HL-60): > 100 µM (inactive)
- GI50 (HOP-92): > 100 µM (inactive)
- GI50 (786-0): > 100 µM (inactive)
- GI50 (UACC-257): > 100 µM (inactive)
- GI50 (A498): > 100 µM (inactive)
- GI50 (HT-29): > 100 µM (inactive)
- GI50 (OVCAR-8): > 100 µM (inactive)
- GI50 (OVCAR-5): > 100 µM (inactive)
- GI50 (NCI-H460): > 100 µM (inactive)
- GI50 (SK-MEL-5): > 100 µM (inactive)
- GI50 (UO-31): > 100 µM (inactive)
- GI50 (T47D): > 100 µM (inactive)
- GI50 (MDA-MB-231): > 100 µM (inactive)
- GI50 (HCC 2998): > 100 µM (inactive)
- GI50 (SK-OV-3): > 100 µM (inactive)
- GI50 (SK-MEL-2): > 100 µM (inactive)
- GI50 (HCT-15): > 100 µM
- GI50 (OVCAR-3): > 100 µM (inactive)
- GI50 (COLO 205): > 100 µM (inactive)
- GI50 (HCT-116): > 100 µM (inactive)
- GI50 (OVCAR-4): > 100 µM (inactive)
- GI50 (LOX IMVI): > 100 µM (inactive)
- GI50 (EKVX): > 100 µM (inactive)
- GI50 (UACC-62): > 100 µM (inactive)
- GI50 (MOLT-4): > 100 µM (inactive)
- GI50 (MDA-N): > 100 µM (inactive)
- GI50 (SF-295): > 100 µM (inactive)
- GI50 (SN12C): > 100 µM (inactive)
- GI50 (CCRF-CEM): > 100 µM (inactive)
- GI50 (NCI/ADR-RES): > 100 µM (inactive)
- GI50 (BT-549): > 100 µM (inactive)
- GI50 (NCI-H23): > 100 µM (inactive)
- GI50 (IGROV-1): > 100 µM (inactive)
- GI50 (SF-268): > 100 µM (inactive)
- GI50 (SK-MEL-28): > 100 µM (inactive)
- GI50 (SF-539): > 100 µM (inactive)
- GI50 (MDA-MB-435): > 100 µM (inactive)
